GI50 and TGI data for 9 molecules are collected here from PubChem BioAssay (NCI).

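Following 48 hours of exposure in 96-well plates, responses at five concentrations were used to interpolate endpoints linearly. GI50 is the concentration that inhibits growth by half. TGI marks complete inhibition of growth.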

Test systems include HT29 colon; HOP-92 NSCLC; M14 melanoma; SF-268 CNS; NCI-H460 lung; LOX IMVI melanoma; PC-3 prostate; SW-620 colon.
Holding throughout (assay): NCI tumour cell line growth inhibition, 48 h

Regarding `O=c1c2c3c(sc2n2c(-c4cc(-c5ccccc5)no4)nnc2n1Cc1ccccc1)CCCC3`, the GI50 in the assay on HT29 colon is 29.2 µM; in the assay on HOP-92 NSCLC, 6.66 µM; with M14 melanoma, 27.2 µM; with SF-268 CNS, 15.6 µM; in the assay on NCI-H460 lung it was 12.6 µM; in the assay with LOX IMVI melanoma, 7.76 µM. Further, the GI50 was 9.19 µM in the assay with PC-3 prostate and 31.4 µM in the assay with SW-620 colon. Moreover, the TGI in the assay on HT29 colon was above 100 µM; in the assay on HOP-92 NSCLC, above 100 µM; in the assay with M14 melanoma it was above 100 µM; in the assay on SF-268 CNS, 68.3 µM; in the assay with NCI-H460 lung, 36.8 µM; in the assay on LOX IMVI melanoma, above 62.4 µM. For the same molecule, the TGI in the assay with PC-3 prostate and in the assay on SW-620 colon was above 100 µM in each case.

As to `O=c1ccc(N=Nc2ccc([N+](=O)[O-])cc2)ccc1O`, the GI50 was 5.71 µM with HT29 colon; 4.9 µM with HOP-92 NSCLC; 7.19 µM with M14 melanoma; 4.18 µM in the assay with SF-268 CNS; 3.48 µM in the assay with NCI-H460 lung; 3.36 µM in the assay with LOX IMVI melanoma. Further, the GI50 is 5.15 µM with PC-3 prostate and 3.45 µM in the assay with SW-620 colon. Besides, the TGI in the assay with HT29 colon, in the assay on HOP-92 NSCLC, with M14 melanoma, in the assay with SF-268 CNS, with NCI-H460 lung and in the assay with LOX IMVI melanoma was above 100 µM throughout. Moreover, the TGI with PC-3 prostate and in the assay with SW-620 colon was above 100 µM each time.

Regarding `CC(C)c1c(C(=O)Nc2ccccc2)c(-c2ccccc2)c(-c2ccc(F)cc2)n1CC[C@@H]1CC=CC(=O)O1`, the GI50 in the assay on HT29 colon is 1.62 µM; with HOP-92 NSCLC it was 0.419 µM; in the assay with M14 melanoma, 1 µM; in the assay with SF-268 CNS, 1.81 µM; with NCI-H460 lung, 2.05 µM; with LOX IMVI melanoma it was 1.63 µM. Besides, the GI50 in the assay on PC-3 prostate was 1.31 µM; in the assay with SW-620 colon, 1.71 µM. Moreover, the TGI in the assay on HT29 colon was 3.66 µM; in the assay on HOP-92 NSCLC, 2.28 µM; in the assay with M14 melanoma, 2.48 µM; in the assay with SF-268 CNS, 3.65 µM; with NCI-H460 lung, 4.21 µM; with LOX IMVI melanoma it was 3.06 µM. Moreover, the figures for the TGI with PC-3 prostate and in the assay with SW-620 colon were 3.86 µM and 3.52 µM, respectively.

As for `Nc1cc(C(=O)O)[nH]c(=O)n1`, the TGI with HT29 colon, in the assay with HOP-92 NSCLC, in the assay on M14 melanoma, in the assay on SF-268 CNS, in the assay on NCI-H460 lung and with LOX IMVI melanoma was above 100 µM throughout. In addition, the TGI with PC-3 prostate and in the assay on SW-620 colon was above 100 µM in each case.

As for `CCCCOc1ccc(NC(=O)n2nc(N)c3ccccc32)cc1`, the GI50 with HT29 colon is 9.98 µM; in the assay on HOP-92 NSCLC it was 17.7 µM; in the assay on M14 melanoma it was 17.7 µM; in the assay with SF-268 CNS, 20.3 µM; with NCI-H460 lung, 13 µM; in the assay with LOX IMVI melanoma, 11.6 µM. For the same molecule, the results for the GI50 in the assay with PC-3 prostate and in the assay on SW-620 colon were 13.9 µM and 19 µM, respectively. The TGI is 26 µM with HT29 colon; 54.1 µM in the assay on HOP-92 NSCLC; 42.2 µM in the assay on M14 melanoma; above 100 µM in the assay with SF-268 CNS; 31.2 µM with NCI-H460 lung; 24.2 µM in the assay with LOX IMVI melanoma. The TGI amounted to 54.1 µM in the assay with PC-3 prostate and 37.2 µM in the assay on SW-620 colon.

For `CC/C(=C(/c1ccc(OCCN(C)C)cc1)c1ccc(OC(=O)CCC(=O)c2c(C)[nH]c(/C=C3\N=C(c4ccc[nH]4)C=C3OC)c2C)cc1)c1ccccc1`, the GI50 with HT29 colon was 0.438 µM; in the assay on HOP-92 NSCLC, 0.749 µM; with M14 melanoma it was 2.06 µM; in the assay with SF-268 CNS, 2.62 µM; in the assay on NCI-H460 lung it was 3.48 µM; with LOX IMVI melanoma, 0.456 µM. In addition, the results for the GI50 in the assay on PC-3 prostate and in the assay on SW-620 colon were 1.78 µM and 0.76 µM, respectively. Moreover, the TGI came out at 11.1 µM in the assay on HT29 colon; 4.13 µM with HOP-92 NSCLC; 4.92 µM with M14 melanoma; 17.8 µM in the assay with SF-268 CNS; 14.1 µM with NCI-H460 lung; 1.69 µM with LOX IMVI melanoma. Further, the results for the TGI with PC-3 prostate and in the assay on SW-620 colon were 17.1 µM and 2.57 µM, respectively.

For `O=C1C2C(C(=O)[N]1[Hg][c]1cccs1)C1(Cl)C(Cl)=C(Cl)C2(Cl)C1(Cl)Cl` (stereo unspecified), the GI50 with HT29 colon is 0.649 µM; in the assay with HOP-92 NSCLC, 1.58 µM; in the assay on M14 melanoma it was 1.14 µM; in the assay with SF-268 CNS it was 1.41 µM; in the assay with NCI-H460 lung, 3.04 µM; with LOX IMVI melanoma it was 0.708 µM. Besides, the GI50 with PC-3 prostate was 1.72 µM; in the assay on SW-620 colon, 1.02 µM. For the same molecule, the TGI with HT29 colon was found to be 3.57 µM; in the assay on HOP-92 NSCLC, 3.03 µM; in the assay on M14 melanoma, 2.68 µM; in the assay on SF-268 CNS, 2.84 µM; in the assay on NCI-H460 lung it was 10.1 µM; in the assay on LOX IMVI melanoma, 1.94 µM. The TGI with PC-3 prostate stood at 4.18 µM; in the assay with SW-620 colon it was 3.08 µM.

Consider `CCCc1cc(O)c2c3c(c(=O)oc2c1)CN(C)CC3`, for which the GI50 in the assay on HT29 colon was 39.5 µM; in the assay with HOP-92 NSCLC it was 15.7 µM; in the assay on M14 melanoma, 32.5 µM; in the assay with SF-268 CNS, above 100 µM; in the assay on NCI-H460 lung, above 100 µM; in the assay with LOX IMVI melanoma, 76.2 µM. In addition, the GI50 in the assay with PC-3 prostate and with SW-620 colon was above 100 µM in each case. The TGI in the assay with HT29 colon, in the assay with HOP-92 NSCLC, in the assay on M14 melanoma, with SF-268 CNS, in the assay with NCI-H460 lung and in the assay with LOX IMVI melanoma was above 100 µM each time. The TGI in the assay with PC-3 prostate and with SW-620 colon was above 100 µM each time.

Take `CCOC(=O)c1sc2ncn(Cc3cccc(Br)c3)c(=O)c2c1C`: the GI50 with HT29 colon was 87.8 µM; in the assay with HOP-92 NSCLC it was 31.1 µM; with M14 melanoma, 20.9 µM; in the assay with SF-268 CNS, 54.9 µM; in the assay with NCI-H460 lung, 77.3 µM; with LOX IMVI melanoma, 84.9 µM. Besides, the GI50 with PC-3 prostate was 25.5 µM; in the assay with SW-620 colon it was 97.6 µM. Besides, the TGI with HT29 colon was above 100 µM; with HOP-92 NSCLC, above 100 µM; in the assay with M14 melanoma, 53.8 µM; with SF-268 CNS it was above 100 µM; in the assay with NCI-H460 lung, above 100 µM; with LOX IMVI melanoma, above 100 µM. The TGI in the assay with PC-3 prostate and with SW-620 colon was above 100 µM each time.
